Test results from patent publication US8815863B2, “Compounds and therapeutic use thereof for protein kinase inhibition” (priority 2009, dated 2014).
Where two headings read alike, the source gives them in different places.

Legend:
HT-29 Cell line = experiment: SRB cell multiplication test, sensitizing to cytotoxic antitumor drugs
Procedure: 3.2 Cell Lines: HT-29 Cell line (from ATCC).
Test Protocol: The effects of the compounds on cancer cell multiplication was measured using Sulforhodamine B (SRB). Specifically, log phase cells are inoculated into the holes of 96-hole culture plates, allowed to grow using the wall-adhesion procedure at 37° C. under 5% CO2. The test compound at 9 different concentrations were added, each concentration in duplicate, with appropriate saline water and cell-less controls. The cells are cultured for a further 72 hours, and fixed with TCA, and SRB is added for staining, and washed, and air-dried. After adding the Tris solution, the OD value was measured at 510 nm using a Spectra Max 190. The rate of inhibition is calculated according to the formula below: Rate of Inhibition=(ODcontrol−ODdrug)/ODcontrol×100%.
The IC50 is calculated based on the above ratios.

Human colon cancer HT-99 = Human colon cancer HT-99 transplanted nude mice; format: in vivo; settings: GCT 20 mg/kg ip, compound 1 15 mg/kg iv
Procedure: Some of the above compounds are tested in vitro or in vivo for their anti-cancer or anti-tumor activities, as well as cellular toxicity tests using SRB and MTT methods. The in vitro anti-cancer effects on human cancer HT-29 and mouse lung cancer cell 3LL are summarized in Table 1, and the effects on treating transplanted human colon cancer […] on nude mice are summarized in Table 2.

[1] = Body weight of ovarian cancer transplanted nude mice; format: in vivo, nude mice BALB/c-nu; settings: i.v.
Procedure: (§1) Starting from 11 days after tumor implant, the animals are administered the test compounds i.v. The animals are weighed every two days, and the tumor volume is measured. After 24 days from the beginning of test compound administration, the animals are killed and the tumors are isolated and weighed.

human ovarian cancer = experiment: Human ovarian cancer transplanted nude mice, combination with Gemcitabine; format: in vivo, nude mice BALB/c-nu
Procedure: The compound used for this test is XC608, shown above, and XC608-Cl is the chloride salt of XC608, 090208-1, also a whitish powder. AZD7762 is a yellow powder.
All of the above are dissolved in 5% glucose injectible solution and diluted to suitable concentrations. Control: Gemcitabine is obtained from Jiangsu Haosen Pharmaceuticals Co., Ltd., also dissolved to suitable concentration in saline solution.
Test animals: 30 nude mice BALB/c-nu, female, bw 18-20 g, supplied by B&K Universal Group Limited, Shanghai, China. Cancer cell lines: the human ovarian cell line is from a commercial source, transplanted onto nude mice, which were maintained by Shanghai Pharmaceutical Industry Research Institute.
The tumors from the ovarian cancer carrying nude mice is isolated and cut into 1-mm^3 pieces, which are then implanted subcutaneously to the test nude mice. After 10 days, the tumors grow to a size of about 0.1 cm^3. The test mice are randomly divided into 5 groups of six animals.
as §1
The tumor volume (TV) is measured and calculated.
Relative Tumor volume (RTV) is Vt/V0, wherein Vt is the tumor volume at the measurement time, while V0 is the tumor volume when drug administration was started.
A compound's antitumor activity is measured by the RTV growth rate, T/C (%), which is calculated as: T/C=Treatment RTC/Control Group RTC×100%.
If TC(%) is more than 60, then the treatment is considered to have no effect. Only when the TC is less than 60, an the difference is statistically significant would the treatment be considered to be effective.
Another measurement is rate of tumor inhibition, which is IR (%)=(control group tumor weight−treatment group tumor weight)/control group tumor weight×100%.

## Nc1ccn([C@@H]2O[C@H](CO)[C@@H](O)C2(F)F)c(=O)n1 [Gemcitabine, gemcitabine]
HT-29 Cell line; Homo sapiens, HT-29, 72 h, read-out: IC50 Drug alone
  IC50: 0.07 µM
HT-29 Cell line; read-out: IC50 +10 nM AZD7762, HT-29, SRB, 72 hours, drug +10 nM AZD7762
  IC50: 0.03 µM
HT-29 Cell line; read-out: IC50 +100 nM AZD7762, HT-29, SRB, 72 hours, drug +100 nM AZD7762
  IC50: 0.005 µM
HT-29 Cell line; read-out: IC50 +1 μM XC608, HT-29, SRB, 72 hours, drug +1 μM XC608
  IC50: 0.003 µM
Human colon cancer HT-99
  TC (%): 45%
[1]; Dn, end of test
  Body Weight (no tumor) Dn: 22.65 g
[1]; d0, start of administration
  Body Weight (with tumor) d0: 21.38 g
[1]; dn, end of test
  Body Weight (with tumor) dn: 25.50 g
Human ovarian cancer; Dn, end of test, i.v.
  TV Dn: 1734.05 ± 586.49 mm^3
Human ovarian cancer; Vt/V0 at dn
  RTV dn: 12.07
Human ovarian cancer; d0, start of administration
  TV d0: 143.67 ± 44.38 mm^3
Human ovarian cancer; isolated tumors at dn
  Tumor Weight dn: 2.85 g
Human ovarian cancer; rate of tumor inhibition by tumor weight versus control
  Tumor RI % dn: 19.72%
Human ovarian cancer; treatment RTV/control RTV, *p < 0.05, **p < 0.01
  T/C % Dn: 82.27%
